Several values for one entry are separate records, joined by “and”; a condition that tells them apart may be missing. Identical values can stand only once. Like-named read-outs stand apart in the source and are kept apart here. Residues, ends and D or L forms follow the SMILES beside them. *: point of attachment. Myristoyl = CCCCCCCCCCCCCC(=O)*
What was measured:
NHBE cells = assay: PMA+8-Br-cGMP-induced mucin secretion from NHBE cells (ELISA); format: cell-based, human; conditions: for Mucin secretion level relative to media control: pre- and co-incubation with 100 nM PMA+1 μM 8-Br-cGMP (Results-M-1A/M-3A)
Protocol: Peptide Blocking Studies—NHBE cells were preincubated with either the MANS or the RNS peptide (1-100 μM) for 15 min, and then PMA (100 nM)+8-Br-cGMP (1 μM) or UTP (100 μM) was added, and cells were incubated for an additional 15 min or 2 h. respectively. Mucin secretion was measured by ELISA and experimental results are designated as Results-I-2B-1 and Results-I-2B-2, as follows. […]
Measurement of Mucin Secretion by ELISA—Before collection of “base line” and “test” mucin samples, the accumulated mucus at the apical surface of the cells was removed by washing with phosphate-buffered saline, pH 7.2. To collect the base-line secretion, cells were incubated with medium alone, and secreted mucin in the apical medium was collected and reserved. Cells were rested for 24 h and then exposed to medium containing the selected stimulatory and/or inhibitory reagents (or appropriate controls), after which secreted mucin was collected and reserved as the test sample. Incubation times for the base line and the test were the same but varied depending on the test reagent utilized. Both base line and test secretions were analyzed by ELISA using an antibody capture method as known in the art. See, e.g., Harlow et al., Antibodies: A Laboratory Manual, pp. 570-573, Cold Spring Harbor Laboratory, Cold Spring Harbor, N.Y. (1988). The primary antibody for this assay was 17Q2 (Babco, Richmond, Calif.), a monoclonal antibody that reacts specifically with a carbohydrate epitope on human airway mucins. The ratio of test/base-line mucin, which is similar to a “secretory index”, was used to quantify mucin secretion, allowing each culture dish to serve as its own control and thus, minimizing deviation caused by variability among culture wells. Wright et al., Am. J. Physiol. 271, L854-L861 (1996). Levels of mucin secretion were reported as percentage of the medium control.
MARCKS-related Peptides—Both the myristoylated N-terminal sequence (MANS) and the random N-terminal sequence (RNS) peptides were synthesized at Genemed Synthesis, Inc. (San Francisco, Calif.), then purified by high pressure liquid chromatography (>95% pure), and confirmed by mass spectroscopy with each showing one single peak with an appropriate molecular mass. The MANS peptide consisted of sequence identical to the first 24 amino acids of MARCKS, i.e. the myristoylated N-terminal region that mediates MARCKS insertion into membranes, MA-[…] (SEQ ID NO: 1) (where MA=N-terminal myristate chain). The corresponding control peptide (RNS) contained the same amino acid composition as the MANS but arranged in random order, MA-[…] (SEQ ID NO: 26). The presence of the hydrophobic myristate moiety in these synthetic peptides enhances their permeability to the plasma membranes, enabling the peptides to be taken up readily by cells. To determine the effects of these peptides on mucin secretion, cells were preincubated with the peptides for 15 min prior to addition of secretagogues, and mucin secretion was then measured by ELISA.
Antisense Oligonucleotides—MARCKS antisense oligonucleotide and its corresponding control oligonucleotide were synthesized at Biognostik GmbH (Gottingen, Germany). NHBE cells were treated with 5 μM antisense or control oligonucleotide apically for 3 days (in the presence of 2 μg/ml lipofectin for the first 24 h). Cells were then incubated with secretagogues, and mucin secretion was measured by ELISA. Total RNA and protein were isolated from treated cells. MARCKS mRNA was assessed by Northern hybridization according to conventional procedures using human MARCKS cDNA as a probe. MARCKS protein level was determined by Western blot using purified anti-MARCKS IgG1 (clone 2F12) as the primary detection antibody.
The effect on mucus secretion of a myristoylated peptide containing the first 24 amino acids of the human MARCKS protein (MANS; myristoylated N-terminal sequence; SEQ ID NO: ) was tested. Cultured normal human bronchial epithelial cells as described above were used. […]

human neutrophils = assay: Human neutrophil chemotactic migration assay; format: cell-based; conditions: test peptide 50 μM; for Neutrophil Migration (% Inhibition), LTB4: LTB4 100 nM; for Neutrophil Migration (% Inhibition), LTB4 / Neutrophil Migration (% Inhibition), fMLP: 0 = inactive; for Neutrophil Migration (% Inhibition), PAF: PAF 100 nM; for Neutrophil Migration (% Inhibition), fMLP: fMLP 100 nM
Protocol: Human neutrophils were isolated from heparinized whole blood collected from healthy adult donors via cephalic venipuncture by a slightly modified method as described by Akasaki et al., 1999 (Akasaki T, Koga H, and Sumimoto H., Phosphoinositide 3-kinase-dependent and -independent activation of the small GTPase Rac2 in human neutrophils, J. Biol. Chem. 274:18055-18059, 1999). The blood was mixed with dextran (final concentration 1.4% dextran) and then allowed to settle for 60 minutes, after which time the leukocyte rich plasma was collected and layered onto 5 mL of Ficoll-Paque PLUS in 15 ml, conical tubes. The plasma was centrifuged at 1800 rpm for 20 minutes at room temperature. The residual erythrocytes were lysed utilizing a hypotonic saline and the remaining neutrophils were re-suspended in Hank's balanced salt solution containing 20 mM HEPES and 8.9 mM sodium bicarbonate without calcium or magnesium (HBSS), yielding neutrophils that were greater than 98% pure and greater than 99% viable.
Neutrophil migration assay was performed according to the method described by Frevert C W, Wong V A, Goodman R B, Goodwin R, and Martin T R., Rapid fluorescence-based measurement of neutrophil migration in vitro, J. Immunol. Methods, 213:41-52, 1998. Human neutrophils were labeled with the fluorescent dye calcein for 30 minutes at room temperature. Cells were then washed and resuspended in a migration buffer containing HBSS with 2% FCS. Cells were treated with buffer alone or with the indicated test peptide (50 μM) for 30 minutes at 37° C. Treated cells (1×10^4 cells) were then placed on the upper side of a ChemoTx® chemotaxis plate (Neuroprobe, Gaithersburg, Md.) membrane (2 μm pore size). Lower wells of the plate were filled with migration buffer alone or with buffer containing fMLP (100 nM), LTB4 (100 nM), or PAF (100 nM). Wells containing 1×10^4 labeled cells were used as standards to calculate migration percentage. Cells were allowed to migrate for 1 hour at 37° C. After incubation, cells on the top of the filter were washed away with PBS. Followed by this, 0.5 mM EDTA was added to the top of the filter for 5 min to detach adherent cells and the membrane was again washed. The plate was then centrifuged at 1000 rpm for 1 min. The filter was removed and the fluorescence was measured in the lower wells (485 nm excitation, 530 nm emission wavelength) using an fMax fluorescence plate reader (Molecular Devices, Sunnyvale, Calif.). Percent migration was determined by dividing the fluorescence of each well by the fluorescence of the standard wells containing 1×10^4 labeled cells. A lesser number of migrated neutrophils in the bottom compartment is indicative of the test peptide being an inhibitor of inflammation.

[1] = peptide 1 μM, 15 min preincubation, then PMA 100 nM+8-Br-cGMP 1 μM 15 min (Results-I-2B-1)
[2] = peptide 10 μM, 15 min preincubation, then PMA 100 nM+8-Br-cGMP 1 μM 15 min (Results-I-2B-1)
[3] = peptide 100 μM, 15 min preincubation, then PMA 100 nM+8-Br-cGMP 1 μM 15 min (Results-I-2B-1)

CCCCCCCCCCCCCC(=O)NCC(=O)N[C@@H](C)C(=O)N[C@@H](CCC(N)=O)C(=O)N[C@@H](Cc1ccccc1)C(=O)N[C@@H](CO)C(=O)N[C@@H](CCCCN)C(=O)N[C@H](C(=O)N[C@@H](C)C(=O)N[C@@H](C)C(=O)N[C@@H](CCCCN)C(=O)NCC(=O)N[C@@H](CCC(=O)O)C(=O)N[C@@H](C)C(=O)N[C@@H](C)C(=O)N[C@@H](C)C(=O)N[C@@H](CCC(=O)O)C(=O)N[C@@H](CCCNC(=N)N)C(=O)N1CCC[C@H]1C(=O)NCC(=O)N[C@@H](CCC(=O)O)C(=O)N[C@@H](C)C(=O)N[C@@H](C)C(=O)N[C@H](C(=O)N[C@@H](C)C(=O)O)C(C)C)[C@@H](C)O [MANS peptide] (Myristoyl-GAQFSKTAAKGEAAAERPGEAAVA-OH; C-terminus assumed)
Relative mucin secretion level referenced to stimulated level (M-3A-3) as 100% (NHBE cells; peptide 1 μM): 90% | Mucin secretion as % of control (NHBE cells; [1]): 188% | Mucin secretion level relative to media control (NHBE cells; peptide 1 μM): 171% | Relative mucin secretion level referenced to stimulated level (M-3A-3) as 100% (NHBE cells; peptide 10 μM): 61% | Mucin secretion as % of control (NHBE cells; [2]): 129% | Mucin secretion level relative to media control (NHBE cells; peptide 10 μM): 117% | Relative mucin secretion level referenced to stimulated level (M-3A-3) as 100% (NHBE cells; peptide 100 μM): 16% | Mucin secretion as % of control (NHBE cells; [3]): 35% | Mucin secretion level relative to media control (NHBE cells; peptide 100 μM): 29% and 30% | Neutrophil Migration (% Inhibition), LTB4 (human neutrophils): 91.8% | Neutrophil Migration (% Inhibition), PAF (human neutrophils): 86.4% | Neutrophil Migration (% Inhibition), fMLP (human neutrophils): 90.0%

CCCCCCCCCCCCCC(=O)NCC(=O)N[C@H](C(=O)N[C@@H](C)C(=O)N1CCC[C@H]1C(=O)N[C@@H](C)C(=O)N[C@@H](C)C(=O)N[C@@H](CCC(=O)O)C(=O)NCC(=O)N[C@@H](C)C(=O)NCC(=O)N[C@@H](C)C(=O)N[C@@H](CCC(=O)O)C(=O)N[C@H](C(=O)N[C@@H](CCCCN)C(=O)N[C@@H](CCCNC(=N)N)C(=O)N[C@@H](C)C(=O)N[C@@H](CO)C(=O)N[C@@H](C)C(=O)N[C@@H](CCC(=O)O)C(=O)N[C@@H](C)C(=O)N[C@@H](CCCCN)C(=O)N[C@@H](CCC(N)=O)C(=O)N[C@@H](C)C(=O)N[C@@H](Cc1ccccc1)C(=O)O)C(C)C)[C@@H](C)O [RNS peptide, reference compound] (Myristoyl-GTAPAAEGAGAEVKRASAEAKQAF-OH; C-terminus assumed)
Mucin secretion as % of control (NHBE cells; [1]): 216% | Mucin secretion as % of control (NHBE cells; [2]): 208% | Mucin secretion as % of control (NHBE cells; [3]): 206% | Neutrophil Migration (% Inhibition), LTB4 (human neutrophils): 0% | Neutrophil Migration (% Inhibition), PAF (human neutrophils): 62.1% | Neutrophil Migration (% Inhibition), fMLP (human neutrophils): 0.7%

CCCCCCCCCCCCCC(=O)NCC(=O)N[C@@H](C)C(=O)N[C@@H](CCC(N)=O)C(=O)N[C@@H](Cc1ccccc1)C(=O)N[C@@H](CO)C(=O)N[C@@H](CCCCN)C(=O)N[C@H](C(=O)N[C@@H](C)C(=O)N[C@@H](C)C(=O)N[C@@H](CCCCN)C(=O)NCC(=O)N[C@@H](CCC(=O)O)C(=O)O)[C@@H](C)O [SEQ ID NO: 13, N-myristoyl-GAQFSKTAAKGE] (Myristoyl-GAQFSKTAAKGE-OH; C-terminus assumed)
Neutrophil Migration (% Inhibition), LTB4 (human neutrophils): 82.7% | Neutrophil Migration (% Inhibition), PAF (human neutrophils): 85.7% | Neutrophil Migration (% Inhibition), fMLP (human neutrophils): 81.8%

CCCCCCCCCCCCCC(=O)NCC(=O)N[C@@H](C)C(=O)N[C@@H](CCC(N)=O)C(=O)N[C@@H](Cc1ccccc1)C(=O)N[C@@H](CO)C(=O)N[C@@H](CCCCN)C(=O)N[C@H](C(=O)N[C@@H](C)C(=O)N[C@@H](C)C(=O)N[C@@H](CCCCN)C(=O)O)[C@@H](C)O [SEQ ID NO: 15, N-myristoyl-GAQFSKTAAK] (Myristoyl-GAQFSKTAAK-OH; C-terminus assumed)
Neutrophil Migration (% Inhibition), LTB4 (human neutrophils): 85.5% | Neutrophil Migration (% Inhibition), PAF (human neutrophils): 87.2% | Neutrophil Migration (% Inhibition), fMLP (human neutrophils): 88.6%

C[C@@](O)(/C=C/[C@H]1CC=CC(=O)O1)[C@@H](C[C@@H](O)\C=C/C=C\C=C\CO)OP(=O)(O)O [fostriecin]
activity at 0.001 µM (NHBE cells; Homo sapiens, NHBE, inhibitor 1 nM, 15 min preincubation, then PMA 100 nM+8-Br-cGMP 1 μM 15 min, read-out: Mucin secretion as % of control): 198% | activity at 0.01 µM (NHBE cells; Homo sapiens, NHBE, inhibitor 10 nM, 15 min preincubation, then PMA 100 nM+8-Br-cGMP 1 μM 15 min, read-out: Mucin secretion as % of control): 182% | activity at 0.1 µM (NHBE cells; Homo sapiens, NHBE, inhibitor 100 nM, 15 min preincubation, then PMA 100 nM+8-Br-cGMP 1 μM 15 min, read-out: Mucin secretion as % of control): 170% | activity at 0.5 µM (NHBE cells; Homo sapiens, NHBE, inhibitor 500 nM, 15 min preincubation, then PMA 100 nM+8-Br-cGMP 1 μM 15 min, read-out: Mucin secretion as % of control): 134%

C=C1[C@@H](O)[C@@H]2O[C@]3(CC[C@H](/C=C/[C@@H](C)[C@@H]4CC(C)=C[C@@]5(O[C@H](C[C@@](C)(O)C(=O)O)CC[C@H]5O)O4)O3)CC[C@H]2O[C@@H]1[C@@H](O)C[C@H](C)[C@H]1O[C@@]2(CCCCO2)CC[C@H]1C [okadaic acid]
activity at 0.5 µM (NHBE cells; Homo sapiens, NHBE, read-out: Mucin secretion as % of control, inhibitor 500 nM, 15 min preincubation, then PMA 100 nM+8-Br-cGMP 1 μM 15 min): 157% | Reduction in mucin secretion level from PMA+8-Br-cGMP-stimulated level (NHBE cells; inhibitor 500 nM): 27% | Mucin secretion as % of control (NHBE cells; inhibitor 500 nM, 15 min preincubation, then PMA 100 nM+8-Br-cGMP 1 μM 15 min): 155%

TNF-α
Mucin secretion level, % of control (NHBE cells; TNF-α 10 ng/ml 4 h, then PMA 100 nM+8-Br-cGMP 1 μM 15 min): 255%
